How the values were obtained:
Type in all cases: physicochemical
[1] = Dynamic vapor sorption (DVS); details: for weight gain from dryness to 90% RH: second adsorption cycle
Excerpt: (§1) DVS: Polymorphs according to the present disclosure may also give rise to vapors sorption behavior different from that of the amorphous material or another polymorphic form. The vapor sorption behavior may be measured in the laboratory by dynamic vapor sorption (DVS) which may be used to distinguish some polymorphic forms from others. In one aspect, the polymorphs as described herein may be characterized by dynamic vapor sorption.
The DVS trace of Crystalline Form I of (R)—N-(tert-butyl)-3-((4-chlorophenyl)(2-(trifluoromethyl)phenyl)methoxy)azetidine-1-carboxamide (compound 1) is reported in FIG. 4.
The DVS trace of Crystalline Form I of (R)—N-(tert-butyl)-3-((4-chlorophenyl)(2-(trifluoromethyl)phenyl)methoxy)azetidine-1-carboxamide (compound 1) is reported in FIG. 8.

[2] = Thermogravimetric analysis (TGA); details: up to 150° C.
Excerpt: as §1, with “TGA:” for “DVS:”, “thermal” for “vapors sorption”, “Thermal” for “The vapor sorption”, “thermogravimetric analysis (TGA)” for “dynamic vapor sorption (DVS)”, “thermogravimetric analysis.” for “dynamic vapor sorption.”
The TGA trace of Crystalline Form I of (R)—N-(tert-butyl)-3-((4-chlorophenyl)(2-(trifluoromethyl)phenyl)methoxy)azetidine-1-carboxamide (compound 1) is reported in FIG. 3.
The TGA trace of Crystalline Form II of (R)—N-(tert-butyl)-3-((4-chlorophenyl)(2-(trifluoromethyl)phenyl)methoxy)azetidine-1-carboxamide (compound 1) is reported in FIG. 7.

[3] = Competitive slurries of Crystalline Form I and Crystalline Form II; details: for conversion of equimolar Form I / Form II slurry to this form: XRPD of solids
Protocol: The relationship between Crystalline Form I and Crystalline Form II of Compound 1 was investigated via competitive slurries and solubility determination.
Equimolar amounts of the Crystalline Form I and Crystalline Form II were suspended in saturated solution of compound 1 and aged in different conditions. Slurry samples were taken at intervals, solids were filtered, dried and analyzed by XRPD. Two temperatures, 20° C. and 40° C., and two different solvent systems, heptane and a mixture of ethanol and water, were investigated.

[4] = Stability at solid state (XRPD re-analysis after storage)
[5] = Temperature dependent solubility in heptane (Crystal16, clear points); details: for temperature at which the two solubility lines intersect / relative solubility: heptane; for temperature at which the two solubility lines intersect: Form I vs Form II
Protocol: Temperature dependent solubility experiment was performed on Crystalline Form I and Crystalline Form II of Compound 1, and data was generated by Crystal16 equipment using heptane as solvent. Slurries with accurate amounts of solid in heptane were prepared, equilibrated at 20° C. for 5 minutes then heated to 70° C. at a rate of 5° C./min, and the turbidity of the suspensions were measured. Clear points of the solutions were determined and solubility vs. temperature curves (Arrhenius plots: ln[conc.] vs. 1/T [° K]) were obtained, as shown in FIG. 9.

Row | weight gain from dryness to 90% RH [1] [%] | weight loss [2] [%] | conversion of equimolar Form I / Form II slurry to this form ([3]; 40° C.) | XRPD pattern after storage with respect to initial XRPD pattern ([4]; 5 weeks of storage at laboratory conditions) | temperature at which the two solubility lines intersect [5] | relative solubility ([5]; temperature greater than 40° C.) | relative stability ([5]; temperatures greater than 40° C.) | hygroscopic behavior ([1]; dryness to 90% RH) | conversion of equimolar Form I / Form II slurry to this form ([3]; 20° C., heptane and ethanol/water) | relative polymorph stability ([3]; room temperature (20-21° C.)) | XRPD pattern after storage with respect to initial XRPD pattern ([4]; 8 weeks of storage at laboratory conditions) | relative solubility ([5]; temperature less than 39° C.) | relative stability ([5]; temperatures less than 39° C.) | Compound
1 | 0.4 | < 0.1 | slow but complete conversion | did not show significant differences | about 39 °C | less than that of Crystalline Form II | more stable |  |  |  |  |  |  | CC(C)(C)NC(=O)N1CC(O[C@H](c2ccc(Cl)cc2)c2ccccc2C(F)(F)F)C1 [Crystalline Form I, (R)—N-(tert-butyl)-3-((4-chlorophenyl)(2-(trifluoromethyl)phenyl)methoxy)azetidine-1-carboxamide]
2 | < 0.1 | < 0.1 |  |  | about 39 °C |  |  | non-hygroscopic behavior | complete conversion | most stable polymorph form | did not show significant differences | less than that of Crystalline Form I | more stable | CC(C)(C)NC(=O)N1CC(O[C@H](c2ccc(Cl)cc2)c2ccccc2C(F)(F)F)C1 [Crystalline Form II, (R)—N-(tert-butyl)-3-((4-chlorophenyl)(2-(trifluoromethyl)phenyl)methoxy)azetidine-1-carboxamide]

Source: patent US12180155B2, “Crystalline forms of a cannabinoid receptor type 1 (CB1) modulator and methods of use and preparation thereof” (Anebulo Pharmaceuticals, Inc., priority 2021, dated 2024)
